Test results: patent publication US4746349A, “Method and compositions for suppressing the nitrification of ammonium in plant growth medium” (American Cyanamid Company, priority 1986, dated 1988)

Experiments:
[1] = tested on: corn (Dekalb T2000, B73×LH 38); assay: Field evaluation: corn ear leaf tissue nitrogen, silt loam plots; assay type: in vivo; settings: 1.1 l/ha; NH3 168 kg N/ha; ear leaf at silking
From the text: (§1) Field Evaluation: Field evaluations are based on the N content of corn leaf tissue and grain yield utilizing two soil types. Replicate (4X) field plots are established at two different locations, one having (I) silt loam soil and one (II) with sandy loam soil. These soils had been previously cropped to non-fertilized corn to reduce the level of residual N. Maduramicin monoammonium salt is applied (0.25, 0.125, 0.07 ppm) with NH3 (84 or 168 kg N/ha) through a "downstream" by an injection system into silt loam plots. Nitrapyrin (0.25 ppm=0.56 kg a.i./ha), nitrogen checks, benzyl alcohol (1.16L/ha) (BA) and a O nitrogen check are included for comparison. Individual replicate plot sizes are 3.04M×22.8M (4, 76-cm corn rows×22.8M long) Anhydrous ammonia are injected on 76-cm centers.
(§2) Urea, treated or non-treated with Maduramicin monoammonium salt is broadcast on the surface of sandy loam plots. Plots are then planted with corn the day following treatment. Dekalb T2000 is planted 10 May on silt loam plots and Pioneer 3352 is planted 11 May in sandy loam plots.
(§3) Corn ear leaf tissues collected at silking on silt loam plots or 60 days post silking (on silt loam and sandy loam plots) are collected from each plot and assayed for total N (AOAC procedures). Grain yields are determined by harvesting the two center rows×15.2 m of each plot.

corn (Pioneer 3352) = assay: Field evaluation: yield of corn, sandy loam plots; assay type: in vivo; settings: sandy loam; N 168 kg/ha as NH3; chemical 1.2 l/ha
From the text: as §1
Plots are then planted with corn the day following treatment. Dekalb T2000 is planted 10 May on silt loam plots and Pioneer 3352 is planted 11 May in sandy loam plots.
as §3

Nitrobacter spp. = assay: Nitrite nitrogen in ammonium amended soil incubated at 25° C.; settings: 5%, soil 25° C., 200 ppm N
Protocol: Determination of nitrite nitrogen and nitrate nitrogen in soil prepared in Example 1 above, which is amended with 200 ppm of nitrogen as aqueous ammonium sulfate, […], is determined using the nitrite and nitrate analysis of the American Organization of Analytical Chemists (AOAC pp. 653-655).

Nitrosomonas spp. = assay: Nitrification of ammonium in soil incubated at 25° C. (ammonium recovery, nitrate accumulation); settings: 5%, soil 25° C.; for Concentration of nitrate nitrogen / Recovery of Ammonium Nitrogen: 200 ppm N
Protocol: In these evaluations, one hundred grams (100 g) of oven dry, silt loam field soil with low residual nitrogen is added to a 6×12 cm screw-capped glass jar for each sampling date to provide an optimum environment for nitrification.
Two replicates of each treatment-sampling date are established. The soil is adjusted to 50% water saturation with an aqueous solution of ammonium sulfate at 200 ppm N and the chemical to be tested as a nitrification inhibitor at rates of from 0.10 to 0.50 ppm.
Incubation is at either 25° C. or 38° C. for 0, 1, 2, 4, 7, 9, 12, 16 or 20 weeks. Inorganic N is extracted by adding 2M KCl (10:1 v/w) and shaking for one hour, allowing settling for fifteen minutes. A 10 ml aliquot from the supernatant is assayed for ammonium, nitrite and nitrate by standard steam distillation methods (AOAC, pp. 653-655). Nitrapyrin (0.5 ppm) is used as a nitrification inhibitor for comparison. Benzyl alcohol, acetone, and a non-N amended soil are run as controls and as a check on mineralization.
Nitrification: Ammonium recovery and nitrate accumulation are indicative of nitrification, and data obtained with test compounds are reported in Tables I and II.

[2] = tested on: corn (Dekalb T2000, B73×LH 38); assay: Field evaluation: yield of corn, silt loam location; assay type: in vivo; settings: N 168 kg/ha, chemical 1.2 l/ha
From the text: as §1, §2, §3

OCc1ccccc1 [Benzyl Alcohol]
Corn Leaf Tissue Analysis (total N) [1]: 271 10^2 ug/g
AVERAGE YIELD 4-REPLICATES (corn (Pioneer 3352)): 165.3 HECTOLITERS/HECTARE
Concentration of nitrite nitrogen (Nitrobacter spp.; week 0): 6 ppm
Concentration of nitrite nitrogen (Nitrobacter spp.; week 1): 5 ppm
Concentration of nitrite nitrogen (Nitrobacter spp.; week 2): 5 ppm
Concentration of nitrite nitrogen (Nitrobacter spp.; week 4): 6 ppm
Concentration of nitrite nitrogen (Nitrobacter spp.; week 7): 3 ppm
Concentration of nitrite nitrogen (Nitrobacter spp.; week 9): -1 ppm
Concentration of nitrite nitrogen (Nitrobacter spp.; week 12): 5 ppm
Concentration of nitrite nitrogen (Nitrobacter spp.; week 16): 1 ppm
Concentration of nitrite nitrogen (Nitrobacter spp.; week 20): 27 ppm
Effect on nitrification, in words (Nitrosomonas spp.): markedly inhibited nitrification throughout the incubation period
Concentration of nitrate nitrogen (Nitrosomonas spp.; week 0): 19 PPM
Recovery of Ammonium Nitrogen (Nitrosomonas spp.; week 0): 194 PPM
Concentration of nitrate nitrogen (Nitrosomonas spp.; week 1): 21 PPM
Recovery of Ammonium Nitrogen (Nitrosomonas spp.; week 1): 163 PPM
Concentration of nitrate nitrogen (Nitrosomonas spp.; week 2): 16 PPM
Recovery of Ammonium Nitrogen (Nitrosomonas spp.; week 2): 163 PPM
Concentration of nitrate nitrogen (Nitrosomonas spp.; week 4): 20 PPM
Recovery of Ammonium Nitrogen (Nitrosomonas spp.; week 4): 168 PPM
Concentration of nitrate nitrogen (Nitrosomonas spp.; week 7): 15 PPM
Recovery of Ammonium Nitrogen (Nitrosomonas spp.; week 7): 164 PPM
Concentration of nitrate nitrogen (Nitrosomonas spp.; week 9): 99 PPM
Recovery of Ammonium Nitrogen (Nitrosomonas spp.; week 9): 41 PPM
Concentration of nitrate nitrogen (Nitrosomonas spp.; week 12): 19 PPM
Recovery of Ammonium Nitrogen (Nitrosomonas spp.; week 12): 163 PPM
Concentration of nitrate nitrogen (Nitrosomonas spp.; week 16): 27 PPM
Recovery of Ammonium Nitrogen (Nitrosomonas spp.; week 16): 169 PPM
Concentration of nitrate nitrogen (Nitrosomonas spp.; week 20): 20 PPM
Recovery of Ammonium Nitrogen (Nitrosomonas spp.; week 20): 139 PPM
AVERAGE YIELD 4-REPLICATES [2]: 140.9 HECTOLITERS/HECTARE
